Data published in US11179389B2, “Purine inhibitors of human phosphatidylinositol 3-kinase delta” (Merck Sharp & Dohme Corp., priority 2017, dated 2021).
One block for each molecule: values may come before it.

Tests used:
PI3Kdelta = PI3Kdelta (Homo sapiens (Human), UniProt O00329); assay: HTRF PI3K biochemical assay, delta isoform; settings: 0.3 nM enzyme, 100 uM ATP, 5 uM PIP2, form screened per table (Neutral or TFA salt)
Text: (§1) HTRF PI3K Biochemical Assay to Measure Intrinsic Potency of Compound Inhibitors
(§2) The PI3-Kinase biochemical assays were developed to measure the intrinsic potency and compound dependent inhibition of the alpha, beta, delta, and gamma PI3K isoform enzymes. This assay was developed and further optimized from a kit produced by Upstate (Millipore catalog #33-047) (Millipore Sigma. Billerica Mass., USA) and has been configured for high throughput screening (HTS) and structure-activity relationship (SAR) screening. Briefly, this procedure exploits the exquisite specificity and high affinity binding of enzyme reaction […] phosphatidyl(3,4,5)triphosphate (PIP3) to the GRP1 pleckstrin homology (PH) domain to generate the signal. In the absence of PIP3, an HTRF (Homogeneous Time-Resolved Fluorescence energy transfer) complex is formed consisting of europium (Eu)-labeled anti-GST, GSTtagged GRP1-PH domain, biotin-PIP3 (biotinylated-PIP3) and streptavidin conjugated APC (Allophycocyanin). The native PIP3 produced by PI3-Kinase activity disrupts in a competitive manner the biotin-PIP3 from the pleckstrin homology (PH) domain, resulting in the loss of energy transfer (HTRF complex) and a decrease in the signal. The format of this assay is the same for all 4 isoforms of PI3K; the differences lie in the concentration of enzyme used to achieve robust assay window. The alpha, beta, and delta assays are run at 0.5, 1, and 0.3 nM enzymes and the gamma assay is run at 5 nM enzyme. The ATP concentration is 100 uM in the alpha, beta, and delta assays and 50 uM adenosine triphosphate (ATP) in the gamma assay. All reactions are run at 5 uM PIP2.
(§3) Compounds are serially diluted (3-fold in 100% DMSO) across a 384-well polypropylene source plated from column 3 to column 12 and column 13 to column 22, to yield 10 concentration dose response for each test compound. Columns 1, 2, 23 and 24 contain either only DMSO or pharmacological known control inhibitor. Once titrations are made, 2.5 nL of the compounds on 384 well plates are reformatted and transferred by acoustic dispense in quadruplicates to a 1536 assay plate (Greiner) to assay across all four PI3K isoform enzymes.
(§4) The PI3-Kinase biochemical assay was optimized using the HTRF kit provided by Upstate (Millipore). The assay kit contains six reagents: 1) 4×Reaction Buffer; 2) native PIP2 (substrate); 3) Stop (EDTA); 4) Detection Mix A (Streptavidin-APC); 5) Detection Mix B (Eu-labeled Anti-GST plus GST-tagged PH-domain): 6) Detection Mix C. In addition, the following items were obtained or purchased; PI3Kinase (catalog #'s alpha 14-602, beta 14-603, gamma 14-558 and delta 14-604 from Upstate Biotechnology now EMD Millipore, Mahopac, N.Y., USA), dithiothreitol (Sigma-Aldrich Corp. (St. Louis, Mo., USA) Catalog #D-5545), Adenosine-5′ triphosphate (InVitrogen (Waltham, Mass., USA), Cat#AS001 Å), native PIP3 (PI(3,4,5)P3, diC8, H^+, CELLSIGNALS, INC., (Columbus, Ohio, USA) Cat #907) DMSO ((Sigma-Aldrich Corp. (St. Louis. Mo., USA) Catalog #472301).
(§5) PI3Kinase Reaction Buffer is prepared by dilution the stock 1:4 with de-ionized water. DTT (DL-Dithiothreitol), phosphatidylinositol 4,5-bisphosphate (PIP2) and Biotin-PIP3 were added to 1536 assay plate at a final concentration of 5 mM, […] and 25 nM on the day of use. Enzyme addition and compound pre-incubation are initiated by the addition of 1.25 ul of PI3K (at twice its final concentration) in the 1× reaction buffer to all wells using a BioRaptor™. Plates are incubated at room temperature for 15 minutes. Reactions are initiated by addition of 1.25 ul of 2× substrate solution (PIP2 and ATP in 1× reaction buffer) using BioRaptor™. Plates are incubated in humidified chamber at room temperature for one hour. Reactions are quenched by addition of 0.625 uL of stop solution to all wells using the BioRaptor™. […]

PI3Kalpha = PI3Kalpha (Homo sapiens (Human), UniProt P42336); assay: HTRF PI3K biochemical assay, alpha isoform (for selectivity ratio); settings: ratio PI3K-alpha IC50 value / PI3K-delta IC50 value
Sequence of PI3Kalpha (P42336 whole entry, canonical isoform): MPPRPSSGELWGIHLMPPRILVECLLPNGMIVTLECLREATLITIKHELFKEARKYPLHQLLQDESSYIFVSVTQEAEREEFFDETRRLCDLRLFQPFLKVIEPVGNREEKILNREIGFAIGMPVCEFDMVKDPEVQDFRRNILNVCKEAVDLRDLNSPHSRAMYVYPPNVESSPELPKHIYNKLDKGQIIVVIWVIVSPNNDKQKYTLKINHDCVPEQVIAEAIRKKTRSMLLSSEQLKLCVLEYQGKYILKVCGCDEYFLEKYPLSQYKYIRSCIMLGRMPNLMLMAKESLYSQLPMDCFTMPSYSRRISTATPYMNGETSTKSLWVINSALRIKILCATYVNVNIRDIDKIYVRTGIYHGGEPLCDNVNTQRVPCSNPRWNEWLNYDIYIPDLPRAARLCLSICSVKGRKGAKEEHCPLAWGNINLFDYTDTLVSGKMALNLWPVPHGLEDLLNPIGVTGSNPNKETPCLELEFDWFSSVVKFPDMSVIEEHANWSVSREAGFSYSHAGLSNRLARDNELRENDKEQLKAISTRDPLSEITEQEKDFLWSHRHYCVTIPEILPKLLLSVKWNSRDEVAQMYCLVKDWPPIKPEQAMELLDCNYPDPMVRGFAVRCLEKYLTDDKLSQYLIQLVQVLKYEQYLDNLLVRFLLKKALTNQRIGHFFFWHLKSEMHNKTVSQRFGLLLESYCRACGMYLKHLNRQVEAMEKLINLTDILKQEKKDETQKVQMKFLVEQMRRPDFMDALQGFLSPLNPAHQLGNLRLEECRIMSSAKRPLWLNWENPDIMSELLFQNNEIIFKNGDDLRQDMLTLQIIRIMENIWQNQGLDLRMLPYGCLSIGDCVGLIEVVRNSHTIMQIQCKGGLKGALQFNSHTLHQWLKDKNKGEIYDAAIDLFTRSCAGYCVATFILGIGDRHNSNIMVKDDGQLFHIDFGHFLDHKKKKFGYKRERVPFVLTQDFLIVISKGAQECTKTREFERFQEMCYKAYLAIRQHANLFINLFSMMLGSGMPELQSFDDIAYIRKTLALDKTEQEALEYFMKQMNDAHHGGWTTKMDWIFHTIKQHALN
Sequence of PI3Kalpha (P27986 whole entry partner, canonical isoform): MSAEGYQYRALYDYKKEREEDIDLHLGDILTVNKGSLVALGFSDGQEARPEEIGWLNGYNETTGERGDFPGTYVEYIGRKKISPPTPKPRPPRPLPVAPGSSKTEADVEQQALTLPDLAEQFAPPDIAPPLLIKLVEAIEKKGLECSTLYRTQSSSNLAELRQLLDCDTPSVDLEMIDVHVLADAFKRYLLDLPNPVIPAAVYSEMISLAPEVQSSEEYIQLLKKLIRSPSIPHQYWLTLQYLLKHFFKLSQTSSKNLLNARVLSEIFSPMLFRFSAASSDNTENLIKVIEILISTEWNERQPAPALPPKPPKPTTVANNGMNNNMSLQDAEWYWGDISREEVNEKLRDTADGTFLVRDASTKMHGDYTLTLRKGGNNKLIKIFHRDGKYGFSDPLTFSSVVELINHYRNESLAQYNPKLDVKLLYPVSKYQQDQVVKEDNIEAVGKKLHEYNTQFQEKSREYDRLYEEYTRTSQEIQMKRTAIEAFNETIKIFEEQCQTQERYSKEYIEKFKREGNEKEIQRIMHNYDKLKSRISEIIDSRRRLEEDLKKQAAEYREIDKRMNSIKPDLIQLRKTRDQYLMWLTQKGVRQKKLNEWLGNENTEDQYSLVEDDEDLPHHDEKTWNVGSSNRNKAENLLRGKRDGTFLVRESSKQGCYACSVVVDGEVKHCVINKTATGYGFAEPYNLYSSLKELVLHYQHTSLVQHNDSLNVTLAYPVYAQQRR
Text: as §1, §2, §3, §4, §5

Sequence of PI3Kdelta (O00329 whole entry, canonical isoform): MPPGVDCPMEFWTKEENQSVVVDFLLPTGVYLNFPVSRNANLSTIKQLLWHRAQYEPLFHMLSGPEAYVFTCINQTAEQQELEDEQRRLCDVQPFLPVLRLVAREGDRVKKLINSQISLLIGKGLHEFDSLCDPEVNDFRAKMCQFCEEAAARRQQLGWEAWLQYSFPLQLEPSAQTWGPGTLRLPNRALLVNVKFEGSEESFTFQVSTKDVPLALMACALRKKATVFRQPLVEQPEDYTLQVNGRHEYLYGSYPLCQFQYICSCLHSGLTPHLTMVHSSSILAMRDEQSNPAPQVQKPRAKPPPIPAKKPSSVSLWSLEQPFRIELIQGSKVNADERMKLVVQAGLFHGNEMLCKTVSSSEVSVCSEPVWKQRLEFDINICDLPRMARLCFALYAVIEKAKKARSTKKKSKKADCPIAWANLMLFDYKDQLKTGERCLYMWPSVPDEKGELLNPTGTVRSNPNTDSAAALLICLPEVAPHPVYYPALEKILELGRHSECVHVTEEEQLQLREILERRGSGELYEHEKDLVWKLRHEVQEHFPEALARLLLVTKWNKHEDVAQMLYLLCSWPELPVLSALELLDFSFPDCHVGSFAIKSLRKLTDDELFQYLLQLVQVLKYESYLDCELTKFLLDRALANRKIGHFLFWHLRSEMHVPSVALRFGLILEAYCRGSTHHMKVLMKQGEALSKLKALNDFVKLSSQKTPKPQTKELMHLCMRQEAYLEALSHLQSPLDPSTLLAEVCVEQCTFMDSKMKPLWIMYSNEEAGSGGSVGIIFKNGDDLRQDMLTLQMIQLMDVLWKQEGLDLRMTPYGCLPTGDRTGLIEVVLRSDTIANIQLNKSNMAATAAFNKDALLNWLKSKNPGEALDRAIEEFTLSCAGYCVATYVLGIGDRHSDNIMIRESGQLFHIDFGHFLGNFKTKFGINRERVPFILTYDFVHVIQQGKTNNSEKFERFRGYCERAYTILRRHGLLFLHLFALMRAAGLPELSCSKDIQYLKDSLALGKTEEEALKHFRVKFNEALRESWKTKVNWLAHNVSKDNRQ
Sequence of PI3Kdelta (P27986 whole entry partner, canonical isoform): as the sequence (P27986 whole entry partner, canonical isoform) above

Compound: Cn1cc(-c2nc(N3CCC4(CC3)NC(=O)OC4CC3CC3)cnc2C#N)cn1 (single isomer, unassigned) [Compound 1-7, 5-[4-(cyclopropylmethyl)-2-oxo-3-oxa-1,8-diazaspiro[4.5]dec-8-yl]-3-(1-methyl-1H-pyrazol-4-yl)pyrazine-2-carbonitrile]
- IC50 (PI3Kdelta): 55 nM
- Selectivity versus PI3Kalpha (PI3Kalpha): >10

Compound: CC(C)CC1OC(=O)NCC12CCN(c1cnc(C#N)c(-c3cnn(C)c3)n1)CC2 (single isomer, unassigned) [Compound 1-10, 5-[1-(2-methylpropyl)-3-oxo-2-oxa-4,9-diazaspiro[5.5]undec-9-yl]-3-(1-methyl-1H-pyrazol-4-yl)pyrazine-2-carbonitrile]
- IC50 (PI3Kdelta): 30 nM
- Selectivity versus PI3Kalpha (PI3Kalpha): >10

Compound: Cn1cc(-c2nc(N3CCC4(CCC(=O)N4CC4CC4)CC3)cnc2C#N)cn1 [Compound 1-1, 5-[1-(cyclopropylmethyl)-2-oxo-1,8-diazaspiro[4.5]dec-8-yl]-3-(1-methyl-1H-pyrazol-4-yl)pyrazine-2-carbonitrile]
- IC50 (PI3Kdelta): 5.4 nM
- Selectivity versus PI3Kalpha (PI3Kalpha): >10

Compound: Cn1cc(-c2nc(N3CCC4(CC3)COC(=O)N4CC3(C)COC3)cnc2C#N)cn1 [Compound 1-2, 5-{1-[(3-methyloxetan-3-yl)methyl]-2-oxo-3-oxa-1,8-diazaspiro[4.5]dec-8-yl}-3-(1-methyl-1H-pyrazol-4-yl)pyrazine-2-carbonitrile]
- IC50 (PI3Kdelta): 45 nM
- Selectivity versus PI3Kalpha (PI3Kalpha): >10

Compound: CN(C)CCN1CC2(CCN(c3cnc(C#N)c(-c4cnn(C)c4)n3)CC2)N(CC2CC2)C1=O [Compound 1-4, 5-{1-(cyclopropylmethyl)-3-[2-(dimethylamino)ethyl]-2-oxo-1,3,8-triazaspiro[4.5]dec-8-yl}-3-(1-methyl-1H-pyrazol-4-yl)pyrazine-2-carbonitrile]
- IC50 (PI3Kdelta): 10 nM
- Selectivity versus PI3Kalpha (PI3Kalpha): >10

Compound: CC(N1C(=O)N(CCN(C)C)CC12CCN(c1cnc(C#N)c(-c3cnn(C)c3)n1)CC2)C(F)(F)F (stereo not shown) [Compound 1-5, 5-{3-[2-(dimethylamino)ethyl]-2-oxo-1-(2,2,2-trifluoro-1-methylethyl)-1,3,8-triazaspiro[4.5]dec-8-yl}-3-(1-methyl-1H-pyrazol-4-yl)pyrazine-2-carbonitrile]
- IC50 (PI3Kdelta): 7.2 nM
- Selectivity versus PI3Kalpha (PI3Kalpha): >10

Compound: Cn1cc(-c2nc(N3CCC4(CC3)CNS(=O)(=O)N4CC3CC3)cnc2C#N)cn1 [Compound 1-6, 5-[1-(cyclopropylmethyl)-2,2-dioxido-2-thia-1,3,8-triazaspiro[4.5]dec-8-yl]-3-(1-methyl-1H-pyrazol-4-yl)pyrazine-2-carbonitrile]
- IC50 (PI3Kdelta): 12 nM
- Selectivity versus PI3Kalpha (PI3Kalpha): >10

Compound: COCCN1CC2(CCN(c3cnc(C#N)c(-c4cnn(C)c4)n3)CC2)N(CC2CC2)C1=O [Compound 1-9, 5-[1-(cyclopropylmethyl)-3-(2-methoxyethyl)-2-oxo-1,3,8-triazaspiro[4.5]dec-8-yl]-3-(1-methyl-1H-pyrazol-4-yl)pyrazine-2-carbonitrile]
- IC50 (PI3Kdelta): 18 nM
- Selectivity versus PI3Kalpha (PI3Kalpha): >10

Compound: Cn1cc(-c2nc(N3CCC4(CC3)CNC(=O)N4CC(F)(F)F)cnc2C#N)cn1 [Compound 1-11, 3-(1-methyl-1H-pyrazol-4-yl)-5-[2-oxo-1-(2,2,2-trifluoroethyl)-1,3,8-triazaspiro[4.5]dec-8-yl]pyrazine-2-carbonitrile]
- IC50 (PI3Kdelta): 32 nM
- Selectivity versus PI3Kalpha (PI3Kalpha): >10

Compound: N#Cc1ncc(N2CCC3(CC2)COC(=O)N3CC2CC2)nc1-c1cnn(C(F)F)c1 [Compound 1-12, 5-[1-(cyclopropylmethyl)-2-oxo-3-oxa-1,8-diazaspiro[4.5]dec-8-yl]-3-[1-(difluoromethyl)-1H-pyrazol-4-yl]pyrazine-2-carbonitrile]
- IC50 (PI3Kdelta): 54 nM
- Selectivity versus PI3Kalpha (PI3Kalpha): >10

Compound: Cn1cc(-c2nc(N3CCC4(CCC(=O)N4CC4CC(F)(F)C4)CC3)cnc2C#N)cn1 [Compound 1-20, 5-{1-[(3,3-difluorocyclobutyl)methyl]-2-oxo-1,8-diazaspiro[4.5]dec-8-yl}-3-(1-methyl-1H-pyrazol-4-yl)pyrazine-2-carbonitrile]
- IC50 (PI3Kdelta): 18 nM
- Selectivity versus PI3Kalpha (PI3Kalpha): >10

Now from value to molecule:

- IC50 (PI3Kdelta): 60 nM
- Selectivity versus PI3Kalpha (PI3Kalpha): >10
Compound: CCC1C(=O)NCC12CCN(c1cnc(C#N)c(-c3cnn(C)c3)n1)CC2 (single isomer, unassigned) [Compound 1-8, 5-(4-ethyl-3-oxo-2,8-diazaspiro[4.5]dec-8-yl)-3-(1-methyl-1H-pyrazol-4-yl)pyrazine-2-carbonitrile]

- IC50 (PI3Kdelta): 9.7 nM
- Selectivity versus PI3Kalpha (PI3Kalpha): >10
Compound: Cn1cc(-c2nc(N3CCC4(CC3)CNC(=O)N4CC3CC3)cnc2C#N)cn1 [Compound 1-3, 5-[1-(cyclopropylmethyl)-2-oxo-1,3,8-triazaspiro[4.5]dec-8-yl]-3-(1-methyl-1H-pyrazol-4-yl)pyrazine-2-carbonitrile]

- IC50 (PI3Kdelta): 190 nM
- Selectivity versus PI3Kalpha (PI3Kalpha): >10
Compound: C[C@@H]1CN(c2nc(-c3cnn(C)c3)cnc2C#N)CCN1C(=O)C1CC1 [Compound 1-13, 3-[(3R)-4-(cyclopropylcarbonyl)-3-methylpiperazin-1-yl]-5-(1-methyl-1H-pyrazol-4-yl)pyrazine-2-carbonitrile]

- IC50 (PI3Kdelta): 8.9 nM
- Selectivity versus PI3Kalpha (PI3Kalpha): >10
Compound: C[C@@H]1C[C@H]1C(=O)N1CCN(c2cnc(C#N)c(-c3cnn(C)c3)n2)C[C@H]1C [Compound 1-14, 5-[(3R)-3-methyl-4-{[(1R,2R)-2-methylcyclopropyl]carbonyl}piperazin-1-yl]-3-(1-methyl-1H-pyrazol-4-yl)pyrazine-2-carbonitrile]

- IC50 (PI3Kdelta): 33 nM
- Selectivity versus PI3Kalpha (PI3Kalpha): >10
Compound: C[C@@H]1CN(c2cnc(C#N)c(-c3cnn(C)c3)n2)CCN1C(=O)C1CC1 [Compound 1-15, 5-[(3R)-4-(cyclopropylcarbonyl)-3-methylpiperazin-1-yl]-3-(1-methyl-1H-pyrazol-4-yl)pyrazine-2-carbonitrile]

- IC50 (PI3Kdelta): 280 nM
- Selectivity versus PI3Kalpha (PI3Kalpha): >10
Compound: C[C@@H]1CN(c2cnc(C#N)c(-c3cnn(C)c3)n2)CCN1C(=O)NC1CC1 [Compound 1-16, (2R)-4-[5-cyano-6-(1-methyl-1H-pyrazol-4-yl)pyrazin-2-yl]-N-cyclopropyl-2-methylpiperazine-1-carboxamide]

- IC50 (PI3Kdelta): 73 nM
- Selectivity versus PI3Kalpha (PI3Kalpha): >10
Compound: C[C@@H]1C[C@H]1C(=O)N1CCN(c2cnc(C#N)c(-c3cnn(C(F)F)c3)n2)C[C@H]1C [Compound 1-17, 3-[1-(difluoromethyl)-1H-pyrazol-4-yl]-5-[(3R)-3-methyl-4-{[(1R,2R)-2-methylcyclopropyl]carbonyl}piperazin-1-yl]pyrazine-2-carbonitrile]

- IC50 (PI3Kdelta): 16 nM
- Selectivity versus PI3Kalpha (PI3Kalpha): >10
Compound: [2H]C([2H])([2H])n1cc(-c2nc(N3CCN(C(=O)C4CC4)[C@H](C)C3)cnc2C#N)cn1 [Compound 1-18, 5-[(3R)-4-(cyclopropylcarbonyl)-3-methylpiperazin-1-yl]-3-[1-(~2~H_3_)methyl-1H-pyrazol-4-yl]pyrazine-2-carbonitrile]

- IC50 (PI3Kdelta): 39 nM
- Selectivity versus PI3Kalpha (PI3Kalpha): >10
Compound: CC(C)C[C@@H]1CN(c2cnc(C#N)c(-c3cnn(C)c3)n2)CCN1C(=O)C1CC1 [Compound 1-19, 5-[(3R)-4-(cyclopropylcarbonyl)-3-(2-methylpropyl)piperazin-1-yl]-3-(1-methyl-1H-pyrazol-4-yl)pyrazine-2-carbonitrile]
